Some test systems named below: OVCAR-3 ovarian; ACHN renal; COLO 205 colon; UACC-257 melanoma; HT29 colon; K-562 leukemia; SNB-75 CNS; MDA-N; MCF7 breast; DU-145 prostate; SF-268 CNS; SK-MEL-2 melanoma.
Holding throughout (assay): NCI tumour cell line growth inhibition, 48 h

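Test compounds were applied to cells in 96-well plates for 48 hours at 5 doses. At the TGI there is no net growth.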

Regarding `O=C(C[C@@H]1CCCN2CCCC[C@H]12)N1c2ccccc2Sc2ccc(Cl)cc21`, the TGI came to 31.9 µM in the experiment with OVCAR-3 ovarian; 27.2 µM with ACHN renal; 26.1 µM in the experiment with COLO 205 colon; 25.6 µM with UACC-257 melanoma; 22.8 µM with HT29 colon; 35.2 µM with K-562 leukemia. Further, the TGI in the experiment on SNB-75 CNS is 33.4 µM; in the experiment on MDA-N it was 30.9 µM; with MCF7 breast, 35.5 µM; in the experiment with DU-145 prostate it was 28.2 µM; with SF-268 CNS it was 42.8 µM.

In the case of `Cc1n[nH]c(=O)n1C1CC1`, the TGI with OVCAR-3 ovarian, in the experiment on ACHN renal, with COLO 205 colon, with UACC-257 melanoma, with HT29 colon and with K-562 leukemia was over 100 µM throughout. For the same molecule, the TGI in the experiment on SNB-75 CNS, with MDA-N, in the experiment on MCF7 breast, in the experiment with DU-145 prostate and in the experiment with SF-268 CNS was over 100 µM in each case.

As to `Cn1cc(NC(=O)Nc2cc(C(=O)Nc3cc(C(=O)Nc4ccc5cc(S(=O)(=O)O)cc(S(=O)(=O)O)c5c4)n(C)c3)n(C)c2)cc1C(=O)Nc1cc(C(=O)Nc2ccc3cc(S(=O)(=O)O)cc(S(=O)(=O)O)c3c2)n(C)c1`, the TGI in the experiment on OVCAR-3 ovarian, in the experiment on ACHN renal, in the experiment with COLO 205 colon, in the experiment with UACC-257 melanoma, with HT29 colon and with K-562 leukemia was over 100 µM in each case. The TGI in the experiment with SNB-75 CNS, with MDA-N, in the experiment with MCF7 breast, in the experiment on DU-145 prostate and with SF-268 CNS was over 100 µM in each case.

Consider `Nc1nc(Cl)c(N)c(NCC2(CO)CCC(OCc3ccccc3)C2)n1` (stereo unspecified), for which the TGI in the experiment on OVCAR-3 ovarian, with ACHN renal, with COLO 205 colon, in the experiment with HT29 colon, with K-562 leukemia and in the experiment with SNB-75 CNS was over 100 µM each time. Moreover, the TGI with MDA-N, in the experiment on MCF7 breast, in the experiment with DU-145 prostate, in the experiment with SF-268 CNS and with SK-MEL-2 melanoma was over 100 µM in each case.

For `Cc1cc(C)n(-c2nc(-n3nc(C)cc3C)nc(-n3nc(C)cc3C)n2)n1`, the TGI in the experiment with OVCAR-3 ovarian, in the experiment with ACHN renal, in the experiment with COLO 205 colon, in the experiment with UACC-257 melanoma, in the experiment on HT29 colon and in the experiment with K-562 leukemia was over 100 µM throughout. Besides, the TGI in the experiment with MDA-N, in the experiment on MCF7 breast, in the experiment with DU-145 prostate, in the experiment on SF-268 CNS and in the experiment with SK-MEL-2 melanoma was over 100 µM in each case.

For `CCOC(=O)c1c(NC(=S)Nc2ccccc2)sc2c1CCN(C)C2`, the TGI with OVCAR-3 ovarian, in the experiment with ACHN renal, in the experiment with COLO 205 colon, in the experiment on UACC-257 melanoma, in the experiment with HT29 colon and with K-562 leukemia was over 100 µM each time. Moreover, the TGI in the experiment on MDA-N, in the experiment on MCF7 breast, in the experiment with DU-145 prostate, in the experiment on SF-268 CNS and in the experiment with SK-MEL-2 melanoma was over 100 µM in each case.

As for `COc1ccc(C2(CC(C)C)CCNC2)cc1OC` (stereo unspecified), the TGI with ACHN renal is over 100 µM; with COLO 205 colon, over 100 µM; with UACC-257 melanoma, over 100 µM; in the experiment with HT29 colon, over 100 µM; in the experiment with K-562 leukemia, over 100 µM; in the experiment with SNB-75 CNS it was 86.3 µM. Also, the TGI in the experiment on MDA-N, in the experiment on MCF7 breast, in the experiment on DU-145 prostate, in the experiment with SF-268 CNS and with SK-MEL-2 melanoma was over 100 µM each time.

Take `COc1cccc([C@@H]2C/C(=N\NC(=O)C(=O)N[C@@H](C)c3ccccc3)c3ccccc3N2)c1`: the TGI in the experiment with OVCAR-3 ovarian, in the experiment on ACHN renal, in the experiment on COLO 205 colon, with UACC-257 melanoma, with K-562 leukemia and in the experiment on SNB-75 CNS was over 100 µM in each case. Also, the TGI with MDA-N, in the experiment on MCF7 breast, with DU-145 prostate, in the experiment on SF-268 CNS and in the experiment with SK-MEL-2 melanoma was over 100 µM in each case.

With `N#CC(O)CCOCc1ccccc1` (stereo unspecified), the TGI in the experiment on OVCAR-3 ovarian, in the experiment on ACHN renal, in the experiment with COLO 205 colon, with UACC-257 melanoma, in the experiment with HT29 colon and with K-562 leukemia was over 100 µM in each case. The TGI in the experiment on MDA-N, in the experiment with MCF7 breast, in the experiment with DU-145 prostate, in the experiment on SF-268 CNS and in the experiment on SK-MEL-2 melanoma was over 100 µM in each case.

As for `COc1cc(/C=C2\CCC(C)C3=C2N=c2s/c(=C/c4ccc(Cl)cc4)c(=O)n2C3c2cc(OC)c(OC)c(OC)c2)cc(OC)c1OC` (stereo unspecified), the TGI in the experiment with ACHN renal, in the experiment on UACC-257 melanoma, with HT29 colon, in the experiment on K-562 leukemia, in the experiment with SNB-75 CNS and in the experiment on MDA-N was over 100 µM in each case. The TGI in the experiment on MCF7 breast, in the experiment on DU-145 prostate, with SF-268 CNS and in the experiment with SK-MEL-2 melanoma was over 100 µM throughout.

Turning to `C/C(=C/CC[C@](C)(OC1OC(CO)C(O)C(O)C1O)[C@H]1CC[C@]2(C)[C@@H]1CC[C@@H]1[C@@]3(C)CC[C@H](O)C(C)(C)[C@@H]3C[C@H](O)[C@]12CO)CO` (stereo partly specified), the TGI in the experiment on OVCAR-3 ovarian, with ACHN renal, in the experiment with COLO 205 colon, in the experiment with UACC-257 melanoma, with HT29 colon and in the experiment on K-562 leukemia was over 100 µM in each case. In addition, the TGI in the experiment on SNB-75 CNS, with MDA-N, in the experiment on MCF7 breast, in the experiment with DU-145 prostate and in the experiment with SF-268 CNS was over 100 µM throughout.

Regarding `FC(F)(F)c1ccc2c(-c3cc[nH]c3)ccnc2c1`, the TGI was 88 µM in the experiment with OVCAR-3 ovarian; over 100 µM with ACHN renal; 43.8 µM in the experiment on COLO 205 colon; over 100 µM with UACC-257 melanoma; 39.2 µM in the experiment on HT29 colon; over 100 µM with K-562 leukemia. For the same molecule, the TGI in the experiment with SNB-75 CNS is 33.8 µM; in the experiment on MDA-N, over 100 µM; with MCF7 breast it was over 100 µM; in the experiment on DU-145 prostate, over 100 µM; with SK-MEL-2 melanoma, over 100 µM.

The values are drawn from PubChem BioAssay (NCI).
